According to BindingDB's records for PubMed 38988222 (Hebei University of Science & Technology):
pIC50: −log10 of the molar value.

Key:
[1] = Inhibition of Ribosomal protein S6 kinase in human THP-1 cells by ELISA analysis
[2] = biological target: PI3K catalytic subunit gamma; assay: Inhibition of P13Kgamma (unknown origin) in the presence of ATP by scintillation proximity assay
[3] = biological target: PI3K catalytic subunit beta; assay: Inhibition of P13Kbeta (unknown origin) in the presence of ATP by scintillation proximity assay

SMILES | pIC50 [2] | pIC50 [3] | further results
CC(NC(=O)c1c(N)nn2cccnc12)c1cc(Cl)c2c(C#N)ncn2c1N1CCS(=O)(=O)C(C)C1 (stereo unspecified) | – | – | pIC50 [1]: > 6.52
Cc1cc(S(=O)(=O)N[C@H]2CC[C@H](O)CC2)ccc1-c1cnc2c(N)c(Cl)ccn12 | > 7.00 | – | –
Cc1cc(S(=O)(=O)N[C@H]2CC[C@H](O)CC2)ccc1-c1cnc(N)c(C(=O)C2CC2)n1 | – | 6.40 | –
Cc1ncc(-c2cc(-c3ccc(S(=O)(=O)NCC(C)(C)O)cc3C)cnc2N)o1 | – | 5.77 | –
Clc1ccc(Cn2cc(-c3ccnc(-c4ncc(-c5ccccc5)[nH]4)c3)cn2)cc1 [US11352340, Example 1] | > 7.30 | – | –
Cc1nnc(-c2cc(-c3cc4c(c(S(C)(=O)=O)c3)C(=O)N([C@@H](C)C3CC3)C4)ccn2)[nH]1 [US11396502, Example 12] | > 7.00 | – | –
